Results as given in publication PMC6376317, “Fluoromethylcyclopropylamine derivatives as potential in vivo toxicophores – A cautionary disclosure” (Bioorganic & Medicinal Chemistry Letters, 2019).
“Also recorded” adds a separate entry of the source. Where two headings read alike, the source gives them in different places.

Key:
PARG [1] = molecular target: T1, PARG (Homo sapiens, UniProt Q86W56); format: biochemical; conditions: read-out: PARG Enzyme Activity
PARG [2] = molecular target: T1, PARG; format: cell-based; conditions: read-out: PARG Cell Assay
[3] = Mouse microsomal stability; format: in vitro ADME; conditions: microsomes, read-out: Mouse Microsomes T1/2
[4] = Human liver microsomal stability; format: in vitro ADME; conditions: liver microsomes, read-out: Human Microsomes T1/2
From the text: Table 1 Improvements to metabolic stability through cyclopropyl modification. | column: Human Microsomes T1/2 (minutes)

[5] = In vivo pharmacokinetics in CD-1 mice; design: species or system mouse; conditions: for In vivo half-life: initial in vivo PK studies; for Fold exposure relative to cell IC50: defined as [Cmax(free)]/Cell IC50
Description: (§1) Pharmacokinetics were studied in 6-8 week old male CD-1 mice following single intravenous or oral administration. Compounds were formulated as solutions comprising up to 10% DMSO with up to 10% Tween80 in saline at a concentration of approximately 1 mM. Doses were administered at 1 mg/kg (intravenous) or 5 mg/kg (oral gavage) unless otherwise stated. Blood samples were collected as dried blood spots (Agilent Bond Elut DMS cards) and assayed following solvent extraction using methanol, through a phospholipid removal plate (Phree phospholipid removal plates, Phenomenex) followed by LC-MS/MS analysis. The time-points for blood collection were as follows: oral (0.5, 1, 3, 5 and 24 h); intravenous (0.1, 0.25, 0.75, 2, 5 and 24 h). The resulting concentration-time data were analyzed by non-compartmental methods (PK Solver, Excel Add-In).

CD-1 mice = test: In vivo tolerability / toxicity observation during PK studies; design: species or system mouse; conditions: for Toxicity Observed / Time of onset of ataxia after oral dosing: mice; for Tolerability in vivo: oral doses from 5 mg/kg to 160 mg/kg; for Time of onset of ataxia after oral dosing: oral dosing arm, 5 mg/kg
Description: We therefore initiated a dose-escalation study to examine dose versus exposure of the compound. […] Our following study, with derivative 12, incorporated enhanced monitoring and here we observed the onset of ataxia shortly after the 5 h sampling time point, and exclusively in the oral dosing arm of the study, despite lower absolute and free drug exposures in these dosing arms.
as §1

[6] = Metabolite identification studies; format: in vitro ADME; conditions: formed via removal of the cyclopropylmethyl moiety
From the text: In an attempt to improve the in vivo PK profile, we undertook a series of metabolite identification studies, to determine the key sites of metabolism on 1 and 2.

[7] = geometric mean of at least two independent determinations
[8] = oral dose 5 (mg/kg), male CD-1 mice

T1 sequence (Q86W56 whole entry, species assumed): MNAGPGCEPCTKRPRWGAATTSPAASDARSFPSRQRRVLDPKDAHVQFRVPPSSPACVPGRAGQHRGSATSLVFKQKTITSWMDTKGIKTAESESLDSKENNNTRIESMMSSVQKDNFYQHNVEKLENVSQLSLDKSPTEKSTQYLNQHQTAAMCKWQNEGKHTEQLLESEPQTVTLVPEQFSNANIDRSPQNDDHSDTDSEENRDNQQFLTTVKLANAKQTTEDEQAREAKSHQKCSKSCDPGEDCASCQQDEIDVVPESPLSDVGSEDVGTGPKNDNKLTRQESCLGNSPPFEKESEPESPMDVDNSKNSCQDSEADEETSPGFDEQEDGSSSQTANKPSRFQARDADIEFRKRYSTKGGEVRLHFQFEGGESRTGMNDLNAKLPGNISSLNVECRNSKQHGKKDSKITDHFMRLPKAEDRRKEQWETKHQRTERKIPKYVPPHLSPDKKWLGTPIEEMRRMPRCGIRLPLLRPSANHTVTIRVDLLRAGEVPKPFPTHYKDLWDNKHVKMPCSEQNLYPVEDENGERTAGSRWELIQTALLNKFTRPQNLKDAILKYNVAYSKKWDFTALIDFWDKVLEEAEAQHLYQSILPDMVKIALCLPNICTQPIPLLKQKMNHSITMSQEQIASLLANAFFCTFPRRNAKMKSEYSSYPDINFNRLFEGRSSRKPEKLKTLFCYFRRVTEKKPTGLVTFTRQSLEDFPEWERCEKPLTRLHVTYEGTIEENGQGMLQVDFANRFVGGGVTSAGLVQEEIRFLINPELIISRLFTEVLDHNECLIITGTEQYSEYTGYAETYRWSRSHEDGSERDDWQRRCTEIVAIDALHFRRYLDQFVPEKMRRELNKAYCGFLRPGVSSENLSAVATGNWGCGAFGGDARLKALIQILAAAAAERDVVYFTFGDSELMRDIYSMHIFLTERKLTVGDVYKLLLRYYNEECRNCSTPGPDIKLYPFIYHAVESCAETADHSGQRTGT

Cn1cc(Cn2c(=O)c3cc(S(=O)(=O)NC4(C)CC4)ccc3n(Cc3ccn(C)n3)c2=O)cn1 [Compound 1]
IC50 (PARG [1]; [7]): 20 nM
IC50 (PARG [2]; [7]): 90 nM
half-life [3]: 22 min
half-life [4]: 53 min
In vivo half-life ([5]; in words): short half-lives
Fold exposure relative to cell IC50 [5, 8]: 0.96
Fold exposure relative to cell IC50 ([5]; oral dose 160 (mg/kg), mice): 350
Toxicity Observed (CD-1 mice; oral dose 5 (mg/kg)): No
Toxicity Observed (CD-1 mice; oral dose 160 (mg/kg)): No
Tolerability in vivo (CD-1 mice): well tolerated
Major metabolite [6]: primary sulphonamides 3 and 4

Cc1cc(Cn2c(=O)c3cc(S(=O)(=O)NC4(C)CC4)ccc3n(C)c2=O)on1 [Compound 2]
In vivo half-life ([5]; in words): short half-lives
Tolerability in vivo (CD-1 mice): well tolerated
Major metabolite [6]: primary sulphonamides 3 and 4

Cn1cc(Cn2c(=O)c3cc(S(=O)(=O)NC4(CF)CC4)ccc3n(Cc3ccn(C)n3)c2=O)cn1 [Compound 5]
IC50 (PARG [1]; [7]): 20 nM
IC50 (PARG [2]; [7]): 170 nM
half-life [3]: 37 min
half-life [4]: 82 min
In vivo clearance ([5]; mice, in words): very rapidly cleared after oral dosing; also recorded: high clearance
Fold exposure relative to cell IC50 [5, 8]: 0.18
Toxicity Observed (CD-1 mice; oral dose 5 (mg/kg)): No

Cn1cc(Cn2c(=O)c3cc(S(=O)(=O)NC4(C(F)F)CC4)ccc3n(Cc3ccn(C)n3)c2=O)cn1 [Compound 6]
IC50 (PARG [1]; [7]): 320 nM
IC50 (PARG [2]; [7]): 1250 nM
half-life [3]: 42 min
half-life [4]: 71 min

Cn1cc(Cn2c(=O)c3cc(S(=O)(=O)NC4(C(F)(F)F)CC4)ccc3n(Cc3ccn(C)n3)c2=O)cn1 [Compound 7]
IC50 (PARG [1]; [7]): 3600 nM
IC50 (PARG [2]; [7]): 4100 nM
half-life [3]: 38 min
half-life [4]: 102 min

[2H]C([2H])([2H])C1(NS(=O)(=O)c2ccc3c(c2)c(=O)n(Cc2cnn(C)c2)c(=O)n3Cc2ccn(C)n2)CC1 [Compound 8]
IC50 (PARG [1]; [7]): 30 nM
IC50 (PARG [2]; [7]): 70 nM
half-life [3]: 18 min
half-life [4]: 34 min

CCn1c(=O)n(Cc2cnn(C)c2)c(=O)c2cc(S(=O)(=O)NC3(C)CC3)ccc21 [Compound 9]
half-life [3]: 47 min
Toxicity Observed (CD-1 mice; oral dose 5 (mg/kg)): No

CCn1c(=O)n(Cc2cnn(C)c2)c(=O)c2cc(S(=O)(=O)NC3(CF)CC3)ccc21 [Compound 10]
IC50 (PARG [1]): 100 nM
IC50 (PARG [2]): 80 nM
half-life [3]: 102 min
Fold exposure relative to cell IC50 [5, 8]: 15
Toxicity Observed (CD-1 mice; oral dose 5 (mg/kg)): well tolerated and No
Toxicity Observed (CD-1 mice; oral dose 10 (dose-escalation study)): one animal was found dead on study; also recorded: liver toxicity was the probable cause of death

Cn1cc(Cn2c(=O)c3cc(S(=O)(=O)NC4(C)CC4)ccc3n(C)c2=O)cn1 [Compound 11]
half-life [3]: 82 min
Toxicity Observed (CD-1 mice; oral dose 5 (mg/kg)): No

Cn1cc(Cn2c(=O)c3cc(S(=O)(=O)NC4(CF)CC4)ccc3n(C)c2=O)cn1 [Compound 12]
IC50 (PARG [1]): 630 nM
IC50 (PARG [2]): 290 nM
half-life [3]: 285 min
Total exposure and Cmax relative to compound 1 ([5]; in vivo, mice): over four-fold lower
Fold exposure relative to cell IC50 [5, 8]: 61
Toxicity Observed (CD-1 mice; oral dose 5 (mg/kg)): Ataxia
Time of onset of ataxia after oral dosing (CD-1 mice): > 5 h

CCn1c(=O)n(Cc2cc(C)on2)c(=O)c2cc(S(=O)(=O)NC3(CF)CC3)ccc21 [Compound 13]
IC50 (PARG [1]; [7]): 1520 nM
IC50 (PARG [2]; [7]): 6600 nM
half-life [3]: 121 min
Fold exposure relative to cell IC50 [5, 8]: 0.28
Toxicity Observed (CD-1 mice; oral dose 5 (mg/kg)): Ataxia
Time of onset of ataxia after oral dosing (CD-1 mice): > 5 h
